Here are results for 22 compounds from patent publication US9309285B2, “Macrocyclic broad spectrum antibiotics” (priority 2012, dated 2016).

One assay has as its target T1, E. coli SPase (Escherichia coli, UniProt P00803).
T1 construct: Full length His-tagged E. coli and S. aureus SPase proteins were expressed in E. coli BL21; His tag; made in house; host or cells: E. coli BL21 (DE3)
Description: SPase enzyme inhibition assay, fluorogenic peptide substrate, E. coli. It counts as biochemical. The following applies: 3 nM E. coli SPase, 20 μM substrate, 10 minutes pre-incubation, room temperature; read-out: IC 50 (nM) E. coli. How it is done: (§1) Briefly, for expression of E. coli SPase, saturated overnight cultures grown in 20 ml of Luria-Bertani medium supplemented with ampicillin were subcultures into 1.5 L of Luria-Bertani, and shaken at 37° C. until an optical density at 600 nm of 0.4-0.5 was achieved. […] S. aureus SPase was expressed and purified similarly, with the following exceptions. […] Resin bound protein was washed in a similar buffer containing 1% Elugent in place of Triton X-100 prior to protein elution in wash buffer supplemented with 300 mM imidazole. […] All protein concentrations were determined by BCA assay.
(§2) Enzyme master solution was prepared by diluting Escherichia coli or Staphylococcus aureus SPase protein into reaction buffer to a final concentration of 3 nM or 10 nM respectively. Reaction buffer consisted of 20 mM NaKHPO4 pH 7.4, 100 mM NaCl, and 1% v/v Elugent™ detergent. Reactions were initiated by the addition of substrate to a final concentration of 20 μM. Reaction progress was monitored by measuring the increase in fluorescence signal (excitation at 314 nm, emission at 416 nm) using a SpectraMax M2 fluorescence microplate reader. […] Three-folder serial dilutions of test compounds, starting at 10 μM, were prepared in enzyme mix solution and incubated at room temperature for 10 minutes. Following this incubation, fluorogenic substrate was added to a final concentration of 20 μM and the increase in fluorescence, corresponding to substrate cleavage, was monitored continuously at room temperature for 1 hour. Initial reaction rates were calculated based on the rate of increase in fluorescence during the reaction. Reaction rates were plotted as a function of compound concentration, and IC50 values were determined nonlinear regression analysis (SoftMaxPro 5.4, Molecular Devices™) of the sigmoidal dose-response curve.

Another assay addresses T2, S. aureus SPase (Staphylococcus aureus, UniProt P0A070).
T2 construct: Full length His-tagged E. coli and S. aureus SPase proteins were expressed in E. coli BL21; His tag; made in house; host or cells: E. coli BL21 (DE3)
T2 sequence (P0A070 1-191): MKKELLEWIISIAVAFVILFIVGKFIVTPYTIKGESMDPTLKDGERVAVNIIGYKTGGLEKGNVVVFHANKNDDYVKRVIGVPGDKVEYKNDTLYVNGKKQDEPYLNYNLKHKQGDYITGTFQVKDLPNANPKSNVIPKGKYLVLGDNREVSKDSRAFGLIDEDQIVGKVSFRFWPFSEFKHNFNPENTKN
Description: SPase enzyme inhibition assay, fluorogenic peptide substrate, S. aureus. It counts as biochemical. How it is done: as §1, §2

In assay [1] the test system is Methicillin Resistant Staphylococcus aureus strain USA 300 (NRS384). The experiment in a line: MIC by broth micro-dilution (CLSI), S. aureus. It counts as cell-based. Particulars: Staphylococcus aureus, MRSA / NRS 384 / USA300; MRSA USA 300 (NRS384); cation adjusted Mueller Hinton Broth + 0.002% Tween-80; 35° C., 22 hours; read-out: MIC (μg/mL) S. aureus. The method, then:
In vitro antimicrobial activity of each compound was determined by measuring minimal inhibitor concentrations (MICs) using the broth micro-dilution technique as approved by the Clinical and Laboratory Standards Institute (CLSI) (Methods for Dilution Antimicrobial Susceptibility Tests for Bacteria that Grow Aerobically; Approved Standard—Eighth Edition. CLSI document M07-A8. Wayne, Pa.: Clinical and Laboratroy Standards; 2009). Antibacterial activity was measure against two strains of bacteria: a Methicillin Resistant Staphylococcus aureus strain USA 300 (NRS384) and a strain of Escherichia coli MC4100 harboring the IMP4213, which results in increased outer-membrane permeability (B Martin and Silhavy T. Imp/OstA is required for cell envelope biogenesis in Escherichia coli. (2002) Molecular Microbiology, 45(5), 1289-1302). Cells were inoculated onto plates of Trypyticase Soy Agar or Luria Agar respectively and grown at 35° C. for 20 hours. Inocula suspensions were prepared by scraping cells into 1 ml of testing media (cation adjusted Mueller Hinton Broth supplemented with 0.002% v/v Tween-80) and diluting to a final OD600 nm of 0.01.
Test compounds were prepared in DMSO at a concentration of 10 mg/ml. These compound stocks were diluted into testing media at a concentration of 64 μg/ml and serial 2-fold dilutions were made in the same media, in 96-well U bottom microtiter dishes, for a total of 10 compound concentrations. Inocula suspensions were added to the 2-fold serial dilutions of test compounds to a final density of OD OD600 nm of 0.0005 and incubated at 35° C. for 22 hours.

pIC50: −log10 of the molar value. Where two headings read alike, the source gives them in different places. Positions of bridges follow the written chain, without caps; N, C: chain ends. Non-standard residues stand in square brackets, D forms with d. Residues, ends and D or L forms follow the SMILES beside them. *: point of attachment. boroAla((+)-pinanediol) = C[C@H](N*)B1O[C@@H]2C[C@@H]3C[C@@H](C3(C)C)[C@]2(C)O1; Biphenylcarbonyl(4'-Bu) = CCCCc1ccc(-c2ccc(C(=O)*)cc2)cc1; Aad = N[C@@H](CCCC(=O)O)C(=O)O; Orn = NCCC[C@H](N)C(=O)O

T1 sequence (P00803 whole entry): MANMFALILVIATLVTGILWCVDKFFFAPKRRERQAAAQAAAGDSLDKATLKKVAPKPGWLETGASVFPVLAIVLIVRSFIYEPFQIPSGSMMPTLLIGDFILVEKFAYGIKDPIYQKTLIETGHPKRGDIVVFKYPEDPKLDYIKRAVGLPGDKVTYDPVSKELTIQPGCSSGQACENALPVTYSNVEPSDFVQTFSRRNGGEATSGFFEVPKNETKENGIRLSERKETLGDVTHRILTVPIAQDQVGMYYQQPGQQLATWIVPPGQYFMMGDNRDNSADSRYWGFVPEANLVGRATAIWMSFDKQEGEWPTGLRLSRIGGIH

As to `C[C@@H]1NC(=O)[C@@H](N(C)C(=O)[C@H](CCCCN)NC(=O)c2ccc(-c3ccc(Cl)cc3)cc2)c2ccc(O)c(c2)-c2cc(ccc2O)C[C@@H](C(=O)O)NC1=O` [Compound 127], the IC50 on E. coli SPase amounted to 1.4 nM. For the same compound, the pIC50 against S. aureus SPase was 6.36.
For `CCCCCCCCCCCCCC(=O)N[C@@H](CCCCN)C(=O)N(C)[C@@H]1C(=O)N[C@@H](C)C(=O)N[C@H](C(=O)N[C@@H](C)B(O)O)Cc2ccc(O)c(c2)-c2cc1ccc2O` [Compound 119] the same measures were 8.6 nM and 7.48.
Consider `CCCCc1ccc(-c2ccc(C(=O)N[C@@H](CCCCN)C(=O)N[C@H]3CCC(=O)NCCCC[C@@H](C(=O)N[C@@H](C)B4O[C@@H]5C[C@@H]6C[C@@H](C6(C)C)[C@]5(C)O4)NC(=O)[C@H](C)NC3=O)cc2)cc1` [Compound 201] ({Biphenylcarbonyl(4'-Bu)}-KEAK-{boroAla((+)-pinanediol)}; lactam 2-4), for which the IC50 at E. coli SPase was determined as 15 nM. This compound gave a negative logarithm of the IC50 (pIC50) at S. aureus SPase of 6.82.
Take `CCCCc1ccc(-c2ccc(C(=O)N[C@@H](CCCCN)C(=O)NCCC(=O)N(C)[C@@H]3C(=O)N[C@@H](C)C(=O)N[C@H](C(=O)O)Cc4ccc(O)c(c4)-c4cc3ccc4O)cc2)cc1` [Compound 117]: the MIC in assay [1] was more than 64 µg/mL. The IC50 on E. coli SPase turned out to be 760 nM. In addition, on S. aureus SPase, the pIC50 was 5.41.
Consider `CCCCc1ccc(-c2ccc(C(=O)N[C@@H](CCCCN)C(=O)N[C@H]3COCCCCC[C@@H](C(=O)N[C@@H](C)B(O)O)NC(=O)[C@H](C)NC3=O)cc2)cc1` [Compound 205], for which the MIC in assay [1] was 2.8 µg/mL. The IC50 is 30 nM at E. coli SPase and 280 nM at S. aureus SPase (read-out: IC 50 (nM) S. aureus, 10 nM S. aureus SPase, 20 μM substrate, 10 minutes pre-incubation, room temperature).
For `CCCCCCCC(=O)NCCC(=O)N[C@@H](CCCCN)C(=O)N(C)[C@@H]1C(=O)N[C@@H](C)C(=O)N[C@H](C(=O)N[C@@H](C)B2O[C@@H]3C[C@@H]4C[C@@H](C4(C)C)[C@]3(C)O2)Cc2ccc(O)c(c2)-c2cc1ccc2O` [Compound 123], the MIC in assay [1] was found to be 64 µg/mL. Moreover, at E. coli SPase, the IC50 was determined as 20 nM. For the same compound, the pIC50 against S. aureus SPase was 7.74.
On to `CCCCc1ccc(-c2ccc(C(=O)N[C@@H](CCCCN)C(=O)N[C@H]3CCC(=O)NCCC[C@@H](C(=O)N[C@@H](C)B4O[C@@H]5C[C@@H]6C[C@@H](C6(C)C)[C@]5(C)O4)NC(=O)[C@H](C)NC3=O)cc2)cc1` [Compound 202] ({Biphenylcarbonyl(4'-Bu)}-KEA[Orn]-{boroAla((+)-pinanediol)}; lactam 2-4), for which the IC50 at E. coli SPase was determined as 28 nM. On S. aureus SPase, this compound gave a pIC50 of 6.70.
With `CCCCc1ccc(-c2ccc(C(=O)NC[C@@H](C)C(=O)N[C@@H](CCCCN)C(=O)N(C)[C@@H]3C(=O)N[C@@H](C)C(=O)N[C@H](C(=O)N[C@@H](C)B4OC5C[C@@H]6C[C@@H](C6(C)C)[C@]5(C)O4)Cc4ccc(O)c(c4)-c4cc3ccc4O)cc2)cc1` (some centres unmarked) [Compound 120], the IC50 at E. coli SPase worked out at 18 nM. Moreover, on S. aureus SPase, the pIC50 was 6.66.
In the case of `CCCCc1ccc(-c2ccc(C(=O)N[C@@H](CCCCN)C(=O)N[C@H]3CCCC(=O)NCCCC[C@@H](C(=O)N[C@@H](C)B4O[C@@H]5C[C@@H]6C[C@@H](C6(C)C)[C@]5(C)O4)NC(=O)[C@H](C)NC3=O)cc2)cc1` [Compound 203] ({Biphenylcarbonyl(4'-Bu)}-K[Aad]AK-{boroAla((+)-pinanediol)}; lactam 2-4), the IC50 on E. coli SPase was determined as 8.9 nM. In addition, at S. aureus SPase, the pIC50 was 7.09.
Take `CCCCCCCCCCCCCC(=O)N[C@@H](CCCCN)C(=O)N(C)[C@@H]1C(=O)N[C@@H](C)C(=O)N[C@H](C(=O)O)Cc2ccc(O)c(c2)-c2cc1ccc2O` [Compound 111]: the IC50 at E. coli SPase amounted to 2.2 nM. At S. aureus SPase, this compound had a pIC50 of 6.80.
The corresponding values for `CCCCCCCC(=O)N[C@@H](CCCCN)C(=O)N(C)[C@@H]1C(=O)N[C@@H](C)C(=O)N[C@H](C(=O)O)Cc2ccc(O)c(c2)-c2cc1ccc2O` [Compound 124] are 23 nM and 6.00.
For `CCCCCCCC(=O)NCCC(=O)N[C@@H](CCCCN)C(=O)N(C)[C@@H]1C(=O)N[C@@H](C)C(=O)N[C@H](C(=O)N[C@@H](C)C(N)=O)Cc2ccc(O)c(c2)-c2cc1ccc2O` [Compound 129], the IC50 on E. coli SPase came to 370 nM. For the same compound, the pIC50 on S. aureus SPase was 6.85.
For `C[C@@H]1NC(=O)[C@@H](N(C)C(=O)[C@H](CCCCN)NC(=O)c2ccc(-c3ccc(Cl)cc3)cc2)c2ccc(O)c(c2)-c2cc(ccc2O)C[C@@H](C(=O)N[C@@H](C)C(=O)N(C)C)NC1=O` [Compound 137] the same measures were 350 nM and 5.51.
For the compound `CCCCc1ccc(-c2ccc(C(=O)NC[C@@H](C)C(=O)N[C@@H](CCCCN)C(=O)N(C)[C@@H]3C(=O)N[C@@H](C)C(=O)N[C@H](C(=O)N[C@@H](C)C(=O)N4CCC[C@H]4C(N)=O)Cc4ccc(O)c(c4)-c4cc3ccc4O)cc2)cc1` [Compound 138], on E. coli SPase, the IC50 was 30 nM. Moreover, the pIC50 against S. aureus SPase is 7.11.
Regarding `C[C@@H]1NC(=O)[C@@H](N(C)C(=O)[C@H](CCN)NC(=O)c2ccc(-c3ccc(Cl)cc3)cc2)c2ccc(O)c(c2)-c2cc(ccc2O)C[C@@H](C(=O)O)NC1=O` [Compound 128], the IC50 at E. coli SPase is 1.5 nM. In addition, the negative-log IC50 (pIC50) against S. aureus SPase is 5.46.
As for `CCCCCCCC(=O)NCCC(=O)N[C@@H](CCCCN)C(=O)N(C)[C@@H]1C(=O)N[C@@H](C)C(=O)N[C@H](C(=O)N[C@@H](C)C(=O)N2CCC[C@H]2C(N)=O)Cc2ccc(O)c(c2)-c2cc1ccc2O` [Compound 131], the IC50 on E. coli SPase amounted to 180 nM. For the same compound, the pIC50 at S. aureus SPase was 8.48.
The corresponding values for `CCCCc1ccc(-c2ccc(C(=O)N[C@@H](CCCCN)C(=O)N(C)[C@@H]3C(=O)N[C@@H](C)C(=O)N[C@H](C(=O)O)Cc4ccc(O)c(c4)-c4cc3ccc4O)cc2)cc1` [Compound 110] are 1.4 nM and 6.46.
For `CCCCCCCC(=O)NCCC(=O)N[C@@H](CCCCN)C(=O)N(C)[C@@H]1C(=O)N[C@@H](C)C(=O)N[C@H](C(=O)O)Cc2ccc(O)c(c2)-c2cc1ccc2O` [Compound 122], at E. coli SPase, the IC50 worked out at 27 nM. The compound also showed a pIC50 on S. aureus SPase of 6.89.
Regarding `CCCCCCCCCCCCCC(=O)N[C@@H](CCCCN)C(=O)N(C)[C@@H]1C(=O)N[C@@H](C)C(=O)N[C@H](C(=O)NCB(O)O)Cc2ccc(O)c(c2)-c2cc1ccc2O` [Compound 118], on E. coli SPase, the IC50 was 7.6 nM. The compound also gave a pIC50 against S. aureus SPase of 7.51.
For `CNC(=O)[C@@H]1CCCN1C(=O)[C@H](C)NC(=O)[C@@H]1Cc2ccc(O)c(c2)-c2cc(ccc2O)[C@H](N(C)C(=O)[C@H](CCCCN)NC(=O)c2ccc(-c3ccc(Cl)cc3)cc2)C(=O)N[C@@H](C)C(=O)N1` [Compound 136], the IC50 at E. coli SPase was found to be 44 nM. Further, the negative-log IC50 (pIC50) against S. aureus SPase was 7.33.
In the case of `CCCCc1ccc(-c2ccc(C(=O)N[C@@H](CCCCN)C(=O)N(C)[C@@H]3C(=O)N[C@@H](C)C(=O)N[C@H](C(=O)N[C@@H](C)B4O[C@@H]5C[C@@H]6C[C@@H](C6(C)C)[C@]5(C)O4)CCCCCc4cc3ccc4OC)cc2)cc1` [Compound 208], the IC50 at E. coli SPase is 680 nM. The same compound showed a negative-log IC50 (pIC50) against S. aureus SPase of less than 5.00.
The corresponding values for `CCCCCCCC(=O)NCCC(=O)N[C@@H](CCCCN)C(=O)N(C)[C@@H]1C(=O)N[C@@H](C)C(=O)N[C@H](C(N)=O)Cc2ccc(O)c(c2)-c2cc1ccc2O` [Compound 130] are 160 nM and 6.24.

In general, pIC50 refers to the negative decadic logarithm of the IC50, by convention in mol/L.
